Where a SMILES comes first, the peptide text is derived from it.
Experiments:
claudin-5 [1] = target: T1, claudin-5 (Rattus norvegicus, UniProt Q9JKD6); test: Immunoblot for claudin-5, alcohol-exposed AECs; assay type: cell-based; conditions: peptide-treated cells from alcohol-fed rats; P=0.042 versus untreated, P=0.016 versus control
T1 construct: endogenous in cells; host or cells: primary alveolar epithelial cells (AECs) from alcohol-fed rats
T1 sequence (Q9JKD6 1-218): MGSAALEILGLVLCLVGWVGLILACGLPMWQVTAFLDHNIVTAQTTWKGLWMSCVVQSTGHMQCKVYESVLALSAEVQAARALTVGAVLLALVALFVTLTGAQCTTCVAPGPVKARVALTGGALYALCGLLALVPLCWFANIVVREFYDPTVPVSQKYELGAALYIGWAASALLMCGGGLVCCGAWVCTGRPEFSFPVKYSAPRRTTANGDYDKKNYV

ZO-1 = test: Immunoblot for ZO-1, alcohol-exposed AECs; assay type: cell-based, rat; conditions: peptide-treated alcohol-exposed AECs
claudin-1 = test: Claudin-1 content, alcohol-exposed AECs; assay type: cell-based, rat; conditions: peptide-treated alcohol-exposed AECs
From the text: By contrast, control AECs were unaffected by the Ac-EFYDP(SEQ ID NO: 1)-NH2 peptide (FIG. 7A, C, E). A control peptide, Ac-LYQY (SEQ ID NO:35)-NH2, had no effect on AEC barrier function in either control or alcohol-exposed cells. The ability of Ac-EFYDP(SEQ ID NO: 1)-NH2 to improve the barrier function of alcohol-exposed AECs correlated with a decrease in tight-junction spike formation (FIG. 7G) and a specific decrease in total claudin-5 content (FIG. 7I). Claudin-18 and ZO-1 were unaffected (FIG. 7I) as was claudin-1.

control AECs [2] = test: Transepithelial resistance (TER), control AECs; assay type: cell-based, rat; conditions: 10 mM peptide, 16 h
Protocol: (§1) AECs isolated from control were cultured on Transwell permeable supports for 5 days and then either untreated (un), or incubated with 10 mM control peptide (con; Ac-LYQY(SEQ ID NO:35)-NH2) or a claudin-5 extracellular domain mimetic peptide (C5; Ac-EFYDP(SEQ ID NO:1)-NH2) for 16 h. The cells were examined for barrier function by transepithelial resistance (TER).
(§2) The difference between AECs isolated from control- and alcohol-fed animals (alcohol-exposed AECs) was evaluated using two different measures of barrier function: transepithelial resistance (TER) and paracellular flux to soluble tracer molecules. […] Thus, alcohol exposure has a deleterious effect on AEC tight junctions.

control AECs [3] = test: Paracellular flux of tracers, control AECs; assay type: cell-based, rat; conditions: 10 mM peptide, 16 h
Protocol: as §2

alcohol-exposed AECs [4] = test: Transepithelial resistance (TER), alcohol-exposed AECs; assay type: cell-based, rat; conditions: 10 mM peptide, 16 h (overnight); alcohol-exposed AECs on Transwell
Protocol: as §1, §2

alcohol-exposed AECs [5] = test: Quantification of % cells with 3 or more tight-junction spikes, alcohol-exposed AECs; assay type: cell-based, rat; conditions: for tight junction spikes versus control shRNA: alcohol exposed AECs transduced with lentiviral shRNA
Protocol: Morphologic disruption of tight junctions was not restricted to claudin-18, as claudin-5 and ZO-1 were also impaired in YFP-claudin-5-transduced AECs. To determine whether ZO-1 disruption was specifically linked to increased claudin-5, the effect of increased YFP-claudin-3 on ZO-1 localization by AECs was examined. […] In a complementary experiment, it was determined whether the ability of alcohol to induce formation of tight-junction spikes was antagonized by depleting claudin-5 using shRNA. […] Thus, claudin-5 was […] to enhance formation of tight-junction spikes.
(§3) To further confirm that spikes were sites of active claudin vesicle formation and fusion, the effects of the dynamin inhibitor Dynasore14 was examined on spike formation by alcohol-exposed AECs.

claudin-18 = target: T2, claudin-18 (Rattus norvegicus, UniProt Q5I0E5); test: Immunoblot for claudin-18, alcohol-exposed AECs; assay type: cell-based; conditions: peptide-treated alcohol-exposed AECs
T2 construct: endogenous in cells; host or cells: primary alveolar epithelial cells (AECs) from alcohol-fed rats
T2 sequence (Q5I0E5 1-261): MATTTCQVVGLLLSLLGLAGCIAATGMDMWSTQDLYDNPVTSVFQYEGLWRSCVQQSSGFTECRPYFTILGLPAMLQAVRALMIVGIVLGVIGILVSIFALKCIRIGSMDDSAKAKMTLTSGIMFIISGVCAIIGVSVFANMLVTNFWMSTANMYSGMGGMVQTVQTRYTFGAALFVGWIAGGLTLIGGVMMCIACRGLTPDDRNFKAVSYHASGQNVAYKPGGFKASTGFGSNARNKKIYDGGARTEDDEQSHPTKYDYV

alcohol-exposed AECs [6] = test: Paracellular flux of tracers, alcohol-exposed AECs; assay type: cell-based, rat; conditions: 10 mM peptide, 16 h
Protocol: as §2

control AECs [7] = conditions: normal AECs treated with inhibitor; cited from earlier work
claudin-5 [8] = conditions: normal AECs treated with inhibitor; cited from earlier work
control AECs [9] = test: Quantification of % cells with 3 or more tight-junction spikes, control AECs; assay type: cell-based, rat; conditions: Dynasore treatment
From the text: as §3

alcohol-exposed AECs [10] = test: Live-cell imaging of YFP-claudin-18 in alcohol-exposed AECs; assay type: cell-based, rat; conditions: Dynasore-treated alcohol-exposed AECs
From the text: as §3

claudin-3 and claudin-4 = conditions: cited from earlier work

CC(=O)NC(CCC(=O)O)C(=O)NC(Cc1ccccc1)C(=O)NC(Cc1ccc(O)cc1)C(=O)NC(CC(=O)O)C(=O)N1CCCC1C(N)=O (stereo not shown) [Ac-EFYDP(SEQ ID NO: 1)-NH2, Ac-EFYDP(SEQ ID NO:1)-NH2] (Ac-EFYDP-NH2; configuration not given here)
total claudin-5 content (immunoblot) (claudin-5 [1]): significant and specific decrease | ZO-1 content (immunoblot) (ZO-1): unaffected | claudin-1 content (claudin-1): unaffected | TER (control AECs [2]): unaffected | paracellular flux of 10 kDa Texas Red dextran (control AECs [3]): unaffected | paracellular flux of calcein (control AECs [3]): unaffected | TER (alcohol-exposed AECs [4]): increase | tight-junction spike formation (alcohol-exposed AECs [5]; peptide-treated alcohol-exposed AECs, P<0.001 versus untreated and control peptide): decrease | claudin-18 content (immunoblot) (claudin-18): unaffected | paracellular flux of 10 kDa Texas Red dextran (alcohol-exposed AECs [6]): decrease | paracellular flux of calcein (alcohol-exposed AECs [6]): decrease

Cc1ccc2nc(NCCN)c3ncc(C)n3c2c1 [BMS-345541]
formation of tight-junction spikes (control AECs [7]): increased | claudin-5 expression (claudin-5 [8]): increased

O=C(NN=Cc1ccc(O)c(O)c1)c1cc2ccccc2cc1O [Dynasore, N′-(3,4-dihydroxybenzylidene)-3-hydroxy-2-naphthohydrazide]
spike formation by control cells (control AECs [9]): did not have a significant effect | punctate YFP-claudin-18 labelling (alcohol-exposed AECs [10]): increase | % cells containing 3 or more tight junction spikes oriented towards the nucleus (alcohol-exposed AECs [5]; 160 μM for 4 h, cells from alcohol fed rats, P=0.002): significantly decreased

Ac-DFYNP-NH2
effectiveness of D-amino acid version relative to corresponding L-amino acid version (claudin-3 and claudin-4): 10-100 fold

Ac-LYQY(SEQ ID NO:35)-NH2 (Ac-LYQY-NH2) [Ac-LYQY (SEQ ID NO:35)-NH2, control peptide, reference compound]
TER (control AECs [2]): no effect | paracellular flux of 10 kDa Texas Red dextran (control AECs [3]): no effect | paracellular flux of calcein (control AECs [3]): no effect | TER (alcohol-exposed AECs [4]): no effect | paracellular flux of 10 kDa Texas Red dextran (alcohol-exposed AECs [6]): no effect | paracellular flux of calcein (alcohol-exposed AECs [6]): no effect

B1: claudin-5 shRNA1: lentiviral short hairpin RNA targeting claudin-5, 616-624, SEQ ID NO: 27/28 (nucleic acid)
chain 1: CCCCCCAACGGCGATTACGACAATTCAAGAGATTGTCGTAATCGCCGTTGGTTTTTGG
chain 2: CCAAAAACCAACGGCGATTACGACAATCTCTTGAATTGTCGTAATCGCCGTTGGGGGG
tight junction spikes versus control shRNA (alcohol-exposed AECs [5]): significantly fewer

B2: shRNA2: lentiviral short hairpin RNA targeting claudin-5, 1594-1612, SEQ ID NO: 29/30 (nucleic acid)
chain 1: CCCCCCACCAAACTGCCGCTAACTTCAAGAGAGTTAGCGGCAGTTTGGTGGTTTTTGG
chain 2: CCAAAAACCACCAAACTGCCGCTAACTCTCTTGAAGTTAGCGGCAGTTTGGTGGGGGG
tight junction spikes versus control shRNA (alcohol-exposed AECs [5]): trend towards decreased spikes

— patent US10919934B2, “Compositions and methods for managing respiratory conditions” (Emory University, priority 2017, dated 2021)
